# Experimental data taken from publication PMC4604170 (PLoS ONE, 2015).
# Legend:
# [1] = no data for the cornea; cited from earlier work
# From the text: It may therefore bind to lectin-like proteins of the stromal extracellular matrix, reducing its bioavailability fur ...
# [2] = tested on: Staphylococcus aureus ATCC29213; test: Effectiveness of prophylaxis once the corneal MIC was achieved (inoculation after 16 days of drops); type: in vivo, New Zealand White rabbits; settings: inoculation after 16 days of vancomycin 1.4% drops 5 times/day; 3 rabbits with titanium film implant
# Protocol: Following bacterial inoculation, development of infection was assessed clinically with SLP and AS-OCT imaging.
# [3] = Corneal and aqueous humour vancomycin quantification by LC-MS; type: in vivo, New Zealand White rabbits; settings: for Vancomycin in the aqueous humour: rabbit; for Vancomycin in the aqueous humour / Corneal vancomycin concentration / Aqueous humour vancomycin concentration: LC-MS; for Corneal vancomycin concentration / Aqueous humour vancomycin concentration: after 4 days of vancomycin 1.4% drops 5 times/day; for Period of drop instillation required to achieve MIC in the cornea: vancomycin 1.4% drops five times a day
# Protocol: Prior to starting the antibiotic regimen, the cornea of the right eye had complete epithelial debridement following application of 20% alcohol for 60 seconds, whereas the epithelium of the left cornea was not debrided.
# Aqueous humour samples (120–150 μL) were extracted with three equivalents of methanol (Merck, Darmstadt, Germany). The samples were shaken for 5 min at 1200 rpm (20°C) and centrifuged for 10 min at 16,000 g (4°C). The supernatants were transferred to fresh tubes and dried in a vacuum concentrator. Cornea samples were cut and ground with a pestle while frozen. They were next homogenized on ice with 300 μL of 3:1 methanol/water with 0.1% formic acid (Sigma Aldrich, St. Louis, MO, USA) for 1 min. The homogenates were then spun down briefly on a capsule centrifuge and supernatants transferred to fresh tubes. The residues were homogenized and spun down a second time. The extracts were combined and centrifuged for 10 min at 16,000 g (4°C). The supernatants were transferred to fresh tubes and dried in a vacuum concentrator. Samples were reconstituted in water (Ultrapure water, Millipore purification unit) and centrifuged for 5 min at 16,000 g (10°C) before transferring to autosampler vials for LC-MS/MS analysis.
# Chromatographic separation was performed on a Waters 2695 Separations Module (Milford, MA, USA) with a Thermo Scientific Hypersil Gold C18 column (Whaltham, MA, USA) (2.1 × 50 mm, 3 μm). The mobile phase was A: 0.1% formic acid in water and B: 0.1% formic acid in acetonitrile. The gradient profile was 2% B at 0 min, 25% B at 6 min, 90% B from 6.5 to 8.5 min and 2% B from 9 to 13 min. The flow rate was 0.3 ml/min. The autosampler and column heater temperatures were maintained at 10 and 30°C, respectively. Detection was performed by an AB Sciex API 2000 triple quadrupole mass spectrometer (Concord, Canada) with an electrospray ionization source operating in the positive ionization mode. The ion source voltage was set to 5 kV.
smiles,measurement,setting,value
CN[C@H](CC(C)C)C(=O)N[C@H]1C(=O)N[C@@H](CC(N)=O)C(=O)N[C@H]2C(=O)N[C@H]3C(=O)N[C@H](C(=O)N[C@H](C(=O)O)c4cc(O)cc(O)c4-c4cc3ccc4O)[C@H](O)c3ccc(c(Cl)c3)Oc3cc2cc(c3O[C@@H]2O[C@H](CO)[C@@H](O)[C@H](O)[C@H]2O[C@H]2C[C@](C)(N)[C@H](O)[C@H](C)O2)Oc2ccc(cc2Cl)[C@H]1O [vancomycin],Binding to proteins,[1],moderate
same,Rabbits showing evidence of corneal infection by day 2 post-inoculation,[2],2 of the 3
same,Vancomycin in the aqueous humour,[3]; after 2 days of vancomycin 1.4% drops 5 times/day,not detected
same,Corneal vancomycin concentration,"[3]; with epithelial removal (right eye, 20% alcohol 60 seconds), 3 rabbits, p = 0.115",2.57 ± 0.40 µg/mL
same,Aqueous humour vancomycin concentration,"[3]; with epithelial removal, p = 0.063",0.43 ± 0.15 µg/mL
same,Corneal vancomycin concentration,"[3]; without epithelial removal (left eye), 3 rabbits without implant",1.36 ± 0.45 µg/mL
same,Aqueous humour vancomycin concentration,[3]; without epithelial removal,0.04 ± 0.005 µg/mL
same,Vancomycin in the aqueous humour,[3]; day 10 of vancomycin 1.4% drops 5 times/day,below the level of quantification
same,Vancomycin in the aqueous humour,[3]; day 16 of vancomycin 1.4% drops 5 times/day,below the level of quantification
same,Period of drop instillation required to achieve MIC in the cornea,"[3]; 100% compliance, epithelium not debrided",16 days
same,Period of drop instillation required to achieve MIC in the cornea,[3]; epithelium debrided,≤ 4 days
